Reference: patent publication US20180243298A1, “TRPV3 MODULATORS” (AbbVie Inc., priority 2015, published 2018)
pIC50: −log10 of the molar value.

Each compound was assayed against T1, human TRPV3 (Homo sapiens, UniProt Q8NET8) (assay: Calcium flux assay (FLIPR TETRA), recombinant HEK293 cells expressing TRPV3, 2-APB response). Settings: 2-APB at its EC80.
T1 construct: expressed in transfected cells; host or cells: HEK293
T1 sequence (Q8NET8 1-790): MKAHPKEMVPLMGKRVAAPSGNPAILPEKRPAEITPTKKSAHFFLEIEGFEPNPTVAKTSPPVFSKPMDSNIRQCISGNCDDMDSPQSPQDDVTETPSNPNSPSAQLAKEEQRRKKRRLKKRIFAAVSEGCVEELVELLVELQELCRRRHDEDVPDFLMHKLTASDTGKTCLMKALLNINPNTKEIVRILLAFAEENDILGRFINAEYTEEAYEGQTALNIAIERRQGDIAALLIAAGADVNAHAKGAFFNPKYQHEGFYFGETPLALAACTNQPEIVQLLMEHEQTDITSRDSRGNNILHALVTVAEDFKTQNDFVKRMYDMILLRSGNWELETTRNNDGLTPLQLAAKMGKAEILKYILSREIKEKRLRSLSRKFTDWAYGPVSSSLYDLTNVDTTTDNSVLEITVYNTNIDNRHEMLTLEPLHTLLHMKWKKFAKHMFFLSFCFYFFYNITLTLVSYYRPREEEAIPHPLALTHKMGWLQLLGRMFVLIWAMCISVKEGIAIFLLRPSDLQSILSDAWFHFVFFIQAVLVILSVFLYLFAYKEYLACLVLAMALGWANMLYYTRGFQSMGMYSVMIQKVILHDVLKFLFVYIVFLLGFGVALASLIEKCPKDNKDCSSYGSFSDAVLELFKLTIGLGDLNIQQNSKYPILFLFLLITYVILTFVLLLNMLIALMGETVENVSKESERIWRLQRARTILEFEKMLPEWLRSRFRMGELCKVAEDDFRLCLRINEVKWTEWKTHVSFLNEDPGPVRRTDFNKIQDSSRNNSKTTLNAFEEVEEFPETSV
Type: cell-based
Procedure, shortened: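 HEK293 cells stably expressing human or mouse TRPV3, loaded with Calcium-4 dye for 90–120 min, read on FLIPR TETRA. Peak fluorescence rise over baseline expressed as percent of the maximal response to 2-APB at its EC80 without compound.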

Row | SMILES | pIC50
1 | CCn1nccc1-c1sc(NC(=O)c2c(OC)ncnc2OC)nc1C(F)(F)F [Example 142, N-[5-(1-ethyl-1H-pyrazol-5-yl)-4-(trifluoromethyl)-1,3-thiazol-2-yl]-4,6-dimethoxypyrimidine-5-carboxamide] | 6.30 to 7.00
2 | CCOc1ncnc(OC)c1C(=O)Nc1nc(C(F)(F)F)c(CC)s1 [Example 70, 4-ethoxy-N-[5-ethyl-4-(trifluoromethyl)-1,3-thiazol-2-yl]-6-methoxypyrimidine-5-carboxamide] | > 7.30
3 | CCOc1ncnc(OCC)c1C(=O)Nc1nc(C(F)(F)F)c(C#N)s1 [Example 7, N-[5-cyano-4-(trifluoromethyl)-1,3-thiazol-2-yl]-4,6-diethoxypyrimidine-5-carboxamide] | 6.00 to 6.30
4 | COc1ncnc(OC)c1C(=O)Nc1nc(C(F)(F)F)c(C2CCOC2)s1 (stereo not shown) [Example 146, 4,6-dimethoxy-N-[5-(tetrahydrofuran-3-yl)-4-(trifluoromethyl)-1,3-thiazol-2-yl]pyrimidine-5-carboxamide] | 6.30 to 7.00
5 | COc1ncnc(OC)c1C(=O)Nc1nc(C(F)(F)F)c(-c2ccnc3ccccc23)s1 [Example 167, 4,6-dimethoxy-N-[5-(quinolin-4-yl)-4-(trifluoromethyl)-1,3-thiazol-2-yl]pyrimidine-5-carboxamide] | > 7.30
6 | COc1ncnc(OC)c1C(=O)Nc1nc(C(F)(F)F)c(-c2cn(C)nc2C(F)(F)F)s1 [Example 186, 4,6-dimethoxy-N-{5-[1-methyl-3-(trifluoromethyl)-1H-pyrazol-4-yl]-4-(trifluoromethyl)-1,3-thiazol-2-yl}pyrimidine-5-carboxamide] | > 7.30
7 | COc1ncnc(OC)c1C(=O)Nc1nc(C(F)(F)F)c(CN(C)C(C)(C)C)s1 [Example 55, N-[5-{[tert-butyl(methyl)amino]methyl}-4-(trifluoromethyl)-1,3-thiazol-2-yl]-4,6-dimethoxypyrimidine-5-carboxamide] | 6.30 to 7.00
8 | CCOC(=O)c1sc(NC(=O)c2c(OC)ncnc2OC)nc1C(F)(F)F [Example 21, ethyl 2-{[(4,6-dimethoxypyrimidin-5-yl)carbonyl]amino}-4-(trifluoromethyl)-1,3-thiazole-5-carboxylate] | > 7.30
9 | CO/N=C(/C)c1sc(NC(=O)c2c(OC)ncnc2OC)nc1C(F)(F)F [Example 136, 4,6-dimethoxy-N-{5-[(1Z)—N-methoxyethanimidoyl]-4-(trifluoromethyl)-1,3-thiazol-2-yl}pyrimidine-5-carboxamide] | > 7.30
10 | COc1ncnc(OC)c1C(=O)Nc1nc(C(F)(F)F)c(-c2ccnc(CC#N)c2)s1 [Example 152, N-{5-[2-(cyanomethyl)pyridin-4-yl]-4-(trifluoromethyl)-1,3-thiazol-2-yl}-4,6-dimethoxypyrimidine-5-carboxamide] | 6.30 to 7.00
11 | COc1ncnc(OC)c1C(=O)Nc1nc(C(F)(F)F)c(C(F)(F)F)s1 [Example 163, N-[4,5-bis(trifluoromethyl)-1,3-thiazol-2-yl]-4,6-dimethoxypyrimidine-5-carboxamide] | 7.00 to 7.30
12 | COc1ncnc(OC)c1C(=O)Nc1nc(C(F)(F)F)c(C(O)c2ccccc2)s1 (stereo not shown) [Example 120, N-{5-[hydroxy(phenyl)methyl]-4-(trifluoromethyl)-1,3-thiazol-2-yl}-4,6-dimethoxypyrimidine-5-carboxamide] | 6.30 to 7.00
13 | COc1ncnc(OC)c1C(=O)Nc1nc(C(F)(F)F)c(C2=COCCC2)s1 [Example 147, N-[5-(3,4-dihydro-2H-pyran-5-yl)-4-(trifluoromethyl)-1,3-thiazol-2-yl]-4,6-dimethoxypyrimidine-5-carboxamide] | 7.00 to 7.30
14 | COc1ncnc(OC)c1C(=O)Nc1nc(C(F)(F)F)c(N2CCOCC2)s1 [Example 32, 4,6-dimethoxy-N-[5-(morpholin-4-yl)-4-(trifluoromethyl)-1,3-thiazol-2-yl]pyrimidine-5-carboxamide] | 6.30 to 7.00
15 | COc1ncnc(OC)c1C(=O)Nc1nc(C(F)(F)F)c(-c2cnc(N3CCOCC3)nc2)s1 [Example 36, 4,6-dimethoxy-N-{5-[2-(morpholin-4-yl)pyrimidin-5-yl]-4-(trifluoromethyl)-1,3-thiazol-2-yl}pyrimidine-5-carboxamide] | 7.00 to 7.30
16 | COc1ncnc(OC)c1C(=O)Nc1nc(C(F)(F)F)c(/C(=N/O)c2ccccn2)s1 [Example 128, N-{5-[(E)-(hydroxyimino)(pyridin-2-yl)methyl]-4-(trifluoromethyl)-1,3-thiazol-2-yl}-4,6-dimethoxypyrimidine-5-carboxamide] | 6.30 to 7.00

Row | SMILES | pIC50
17 | COc1ncnc(OC)c1C(=O)Nc1nc(C(F)(F)F)c(-c2cnc(C#N)nc2)s1 [Example 162, N-[5-(2-cyanopyrimidin-5-yl)-4-(trifluoromethyl)-1,3-thiazol-2-yl]-4,6-dimethoxypyrimidine-5-carboxamide] | 6.30 to 7.00
18 | CCOC(=O)c1sc(NC(=O)c2c(OC)ncnc2OC)nc1-c1ccc(C(F)(F)F)cn1 [Example 75, ethyl 2-{[(4,6-dimethoxypyrimidin-5-yl)carbonyl]amino}-4-[5-(trifluoromethyl)pyridin-2-yl]-1,3-thiazole-5-carboxylate] | 6.30 to 7.00
19 | COc1ncnc(OC)c1C(=O)Nc1nc(C(F)(F)F)c(C2CC2)s1 [Example 37, N-[5-cyclopropyl-4-(trifluoromethyl)-1,3-thiazol-2-yl]-4,6-dimethoxypyrimidine-5-carboxamide] | > 7.30
20 | COc1ncnc(OC)c1C(=O)Nc1nc(C(F)(F)F)c(-c2ccnn2CC2CC2)s1 [Example 188, N-{5-[1-(cyclopropylmethyl)-1H-pyrazol-5-yl]-4-(trifluoromethyl)-1,3-thiazol-2-yl}-4,6-dimethoxypyrimidine-5-carboxamide] | > 7.30
21 | COc1ncnc(OC)c1C(=O)Nc1nc(C(F)(F)F)c(-c2ccnc(N3CCOCC3)c2)s1 [Example 182, 4,6-dimethoxy-N-{5-[2-(morpholin-4-yl)pyridin-4-yl]-4-(trifluoromethyl)-1,3-thiazol-2-yl}pyrimidine-5-carboxamide] | 7.00 to 7.30
22 | COc1ncnc(OC)c1C(=O)Nc1nc(C(F)(F)F)c(-c2ccc(OCC(F)(F)F)nc2)s1 [Example 194, 4,6-dimethoxy-N-{5-[6-(2,2,2-trifluoroethoxy)pyridin-3-yl]-4-(trifluoromethyl)-1,3-thiazol-2-yl}pyrimidine-5-carboxamide] | 6.30 to 7.00
23 | COc1ncnc(OC)c1C(=O)Nc1nc(C(F)(F)F)c(CNC(C)(C)C)s1 [Example 56, N-{5-[(tert-butylamino)methyl]-4-(trifluoromethyl)-1,3-thiazol-2-yl}-4,6-dimethoxypyrimidine-5-carboxamide] | < 6.00
24 | COc1ncnc(OC)c1C(=O)Nc1nc(C(F)(F)F)c(-c2cn(C)nc2C)s1 [Example 67, N-[5-(1,3-dimethyl-1H-pyrazol-4-yl)-4-(trifluoromethyl)-1,3-thiazol-2-yl]-4,6-dimethoxypyrimidine-5-carboxamide] | 7.00 to 7.30
25 | COc1ncnc(OC)c1C(=O)Nc1nc(C(F)(F)F)c(-c2cccnc2N2CCOCC2)s1 [Example 185, 4,6-dimethoxy-N-{5-[2-(morpholin-4-yl)pyridin-3-yl]-4-(trifluoromethyl)-1,3-thiazol-2-yl}pyrimidine-5-carboxamide] | > 7.30
26 | COc1ncnc(OC)c1C(=O)Nc1nc(C(F)(F)F)c(-c2cccc(CC#N)n2)s1 [Example 155, N-{5-[6-(cyanomethyl)pyridin-2-yl]-4-(trifluoromethyl)-1,3-thiazol-2-yl}-4,6-dimethoxypyrimidine-5-carboxamide] | 6.30 to 7.00
27 | COc1ncnc(OC)c1C(=O)Nc1nc(C(F)(F)F)c(C(=O)c2ccccc2)s1 [Example 121, N-[5-benzoyl-4-(trifluoromethyl)-1,3-thiazol-2-yl]-4,6-dimethoxypyrimidine-5-carboxamide] | 7.00 to 7.30
28 | COc1ncnc(OC)c1C(=O)Nc1nc(C(F)(F)F)c(-c2cccc(F)n2)s1 [Example 153, N-[5-(6-fluoropyridin-2-yl)-4-(trifluoromethyl)-1,3-thiazol-2-yl]-4,6-dimethoxypyrimidine-5-carboxamide] | > 7.30
29 | CCOc1ncnc(OCC)c1C(=O)Nc1nc(C(F)(F)F)c(-c2ccc(Cl)cc2)s1 [Example 5, N-[5-(4-chlorophenyl)-4-(trifluoromethyl)-1,3-thiazol-2-yl]-4,6-diethoxypyrimidine-5-carboxamide] | 6.00 to 6.30
30 | COc1ncnc(OC)c1C(=O)Nc1nc(C(F)(F)F)c(-c2ccc(Cl)cn2)s1 [Example 46, N-[5-(5-chloropyridin-2-yl)-4-(trifluoromethyl)-1,3-thiazol-2-yl]-4,6-dimethoxypyrimidine-5-carboxamide] | > 7.30
31 | COc1ncnc(OC)c1C(=O)Nc1nc(C(C)(C)C)c(C#N)s1 [Example 189, N-(4-tert-butyl-5-cyano-1,3-thiazol-2-yl)-4,6-dimethoxypyrimidine-5-carboxamide] | > 7.30
